Results on nine compounds are retold here after ChEMBL document CHEMBL3232977, “Medicinal chemistry optimization of antiplasmodial imidazopyridazine hits from high throughput screening of a SoftFocus kinase library: part 1” (J Med Chem, 2014).

For data set [1], the system named is Plasmodium falciparum.
Data set [2] can be described thus: physchem. To be noted: 0.01 M HCl, pH 2.
For data set [3], the system named is Plasmodium berghei. Kind of data set: Antimalarial activity against GFP-transfected Plasmodium berghei ANKA infected in mouse assessed as reduction of parasitemia at 40 mg/kg, po qd for 4 days. The format is functional.
Data set [4] deals with Plasmodium berghei. Description: Antimalarial activity against GFP-transfected Plasmodium berghei ANKA infected in mouse assessed as mean survival days at 40 mg/kg, po qd for 4 days. It counts as functional.
A short description of data set [5]: Apparent Cmax in GFP-transfected Plasmodium berghei ANKA infected mouse at 40 mg/kg, po qd for 4 days. The format is ADME, organism-based. On the set-up: dose 40 mg/kg, route oral. To be noted: in vivo.
In data set [6] the test system is Plasmodium falciparum. Kind of data set: microbe, parasite or virus in culture. To be noted: K1.
Data set [7] concerns Plasmodium falciparum. Kind of data set: microbe, parasite or virus in culture. The settings on record: NF54.
A short description of data set [8]: physchem. To be noted: buffer, pH 2.
The test system of data set [9] is Plasmodium berghei. Description: Antimalarial activity against GFP-transfected Plasmodium berghei ANKA infected in po dosed mouse assessed as reduction of parasitemia administered qd for 4 days. It counts as functional. To be noted: 96 h.
Data set [10] relates to Plasmodium falciparum. Description: Antimalarial activity against Plasmodium falciparum infected in po dosed SCID mouse assessed as reduction of parasitemia administered qd for 4 days. The format is functional. To be noted: 96 h.
Data set [11] can be described thus: Apparent AUC in GFP-transfected Plasmodium berghei ANKA infected mouse at 40 mg/kg, po qd for 4 days. The format is ADME, organism-based. Also noted: dose 40 mg/kg, route oral. The settings on record: in vivo.
Another data set has as its system Plasma. Description: Average plasma concentration in GFP-transfected Plasmodium berghei ANKA infected mouse at 40 mg/kg, po qd for 4 days measured after 24 hrs. It counts as ADME, organism-based. Also noted: dose 40 mg/kg, route oral. To be noted: in vivo.
Data set [12] can be described thus: Apparent half life in Sprague-Dawley rat at 3.6 mg/ml, iv. It counts as ADME, organism-based. To be noted: in vivo, read-out: t1/2(app) (converted).
Data set [13] is described as follows: Plasma total clearance in Sprague-Dawley rat at 3.6 mg/ml, iv. The format is ADME, organism-based.
Data set [14] can be described thus: Volume of distribution at steady state in Sprague-Dawley rat at 3.6 mg/ml, iv. It counts as ADME, organism-based. The settings on record: in vivo, read-out: Vdss.
Data set [15] in a line: AUC (0 to infinity) in Sprague-Dawley rat at 3.6 mg/ml, iv. The format is ADME, organism-based. Also noted: dose 3.6 mg/ml, route intravenous, time infinity. The settings on record: plasma.
Data set [16] in a line: Apparent half life in Sprague-Dawley rat at 3.6 mg/ml, po. To be noted: in vivo, read-out: t1/2(app) (converted). The format is ADME, organism-based.
Data set [17] can be described thus: AUC (0 to infinity) in Sprague-Dawley rat at 3.6 mg/ml, po. It counts as ADME, organism-based. Also noted: dose 3.6 mg/ml, time infinity, route oral. The settings on record: plasma.
A short description of data set [18]: Cmax in Sprague-Dawley rat at 3.6 mg/ml, po. Also noted: dose 3.6 mg/ml, route oral. The format is ADME, organism-based. The settings on record: in vivo.
Data set [19] in a line: Tmax in Sprague-Dawley rat at 3.6 mg/ml, po. To be noted: in vivo. The format is ADME, organism-based.
Data set [20] can be described thus: Oral bioavailability in Sprague-Dawley rat at 3.6 mg/ml. The settings on record: in vivo. The format is ADME, organism-based.
Data set [21] can be described thus: Solubility of the compound in 0.01M HCl at pH 2.5. It counts as physicochemical.
The test system of data set [22] is Plasmodium berghei. To be noted: dose 30 mg/kg; route oral.
The test system of data set [23] is Plasmodium berghei. To be noted: dose 30 mg/kg; route oral. The source holds these as a separate data set.

Each structure is given as a SMILES string. In brackets after ≈: the same amount, converted by molar mass.

As to `CC(C)(C)c1cccc(-c2ccc3ncc(-c4ccc(S(C)(=O)=O)cc4)n3n2)c1`, the IC50 (as a rule, the point on the concentration scale where inhibition reaches its midpoint) in the data set with Plasmodium falciparum [1] is “ND(Insoluble)”. Moreover, the solubility – broadly, the concentration that dissolves in the medium under given conditions – in the data set “physchem [2]” was above 100 µg/mL.
Regarding `CS(=O)(=O)c1ccc(-c2cnc3ccc(-c4cccc(S(N)(=O)=O)c4)nn23)cc1`, the MSD in the data set on Plasmodium berghei [3] was below 40 days; in the data set with Plasmodium berghei [4], 4 days. Further, the Cmax – broadly, the peak of the concentration-time curve – in data set [5] is 20 nM. This compound had a solubility in the data set “physchem [2]” above 100 µg/mL. Also, the IC50 in the data set on Plasmodium falciparum [6] and in the data set on Plasmodium falciparum [7] was 4.4 nM throughout.
As to `CN1CCN(C(=O)c2cccc(-c3ccc4ncc(-c5ccc(S(C)(=O)=O)cc5)n4n3)c2)CC1`, the results for the solubility in “physchem [2]” and in the data set “physchem [8]” were above 100 µg/mL and 50 µg/mL (≈ 105 µM), respectively. The values for the IC50 in the data set on Plasmodium falciparum [6] and with Plasmodium falciparum [7] were 5.5 nM and 6.1 nM, respectively.
Turning to `CS(=O)(=O)c1ccc(-c2cnc3ccc(-c4cccc(S(C)(=O)=O)c4)nn23)cc1`, the MSD was determined as 98 days in the data set with Plasmodium berghei [3] and 7 days with Plasmodium berghei [4]. Also, the ED50 (commonly the dose at which the effect has come halfway, by size or by number of responders) with Plasmodium berghei [9] stood at 1.4 mg/kg. In addition, the ED90 is 15 mg/kg in the data set with Plasmodium berghei [9] and 1.5 mg/kg in the data set on Plasmodium falciparum [10]. The AUC (commonly the area under the concentration-time curve, a measure of exposure) at 96 h in data set [11] was 27.8 µM·h. For the same compound, the Cmax was 2200 nM in [5] and 1900 nM in data set [18]. The same compound gave a Cave with Plasma of 1200 nM. Moreover, the half-life in [12] was 7.15 h; in data set [16], 7.08 h. For the same compound, the clearance (commonly a measure of how efficiently the substance is removed, as volume per time) in data set [13] amounted to 5.77 mL/min/kg. Further, the Vd in data set [14] was 3.01 L/kg. The AUC(0-inf) (usually total exposure, with the tail of the curve extrapolated) in data set [15] is 24.3 µM·h; in data set [17] it was 18.9 µM·h. The Tmax (as a rule, the time at which the peak concentration occurs) in [19] amounted to 3 h. Moreover, the bioavailability – broadly, the share of a dose that reaches the circulation, judged against a reference dose that is usually intravenous – in data set [20] came to 77.7%. Moreover, the solubility in “physchem [2]” was above 100 µg/mL. Further, the values for the IC50 with Plasmodium falciparum [6] and in the data set with Plasmodium falciparum [7] were 6.3 nM and 7.3 nM, respectively.
As for `CS(=O)(=O)c1ccc(-c2cnc3ccc(-c4cccc(C(=O)N5CCNCC5)c4)nn23)cc1`, the solubility (in data set [21]; in “physchem [2]”) was above 100 µg/mL in each case. Also, the MSD with Plasmodium berghei [3] was below 40 days; in the data set on Plasmodium berghei [4] it was 4 days. In addition, the Cmax in data set [5] came out at 10 nM. Moreover, the IC50 with Plasmodium falciparum [6] was 11 nM; in the data set with Plasmodium falciparum [7], 15 nM.
As for `Cc1ccc(-c2ccc3ncc(-c4ccc(S(C)(=O)=O)cc4)n3n2)cc1C(F)(F)F`, the MSD in the data set with Plasmodium berghei [3] turned out to be 79 days; in the data set on Plasmodium berghei [4] it was 7 days. In the data set “physchem [2]”, this compound came in with a solubility above 100 µg/mL. For the same compound, the IC50 with Plasmodium falciparum [6] came out at 26 nM; in the data set with Plasmodium falciparum [7], 32 nM.
On to `CS(=O)(=O)c1ccc(-c2cnc3ccc(-c4cccc(C(=O)NCCO)c4)nn23)cc1`, for which the solubility in the data set “physchem [2]” was above 100 µg/mL; in “physchem [8]”, 50 µg/mL (≈ 115 µM). For the same compound, the results for the IC50 in the data set on Plasmodium falciparum [6] and in the data set with Plasmodium falciparum [7] were 78 nM and 99 nM, respectively.
Consider `O[C@@H](c1cc(C(F)(F)F)nc2c(C(F)(F)F)cccc12)[C@H]1CCCCN1` (relative stereo) [(S,R)-MEFLOQUINE], for which the values for the MSD in the data set on Plasmodium berghei [22] and with Plasmodium berghei [23] were 99.9 days and 29 days, respectively. Also, the IC50 with Plasmodium falciparum [6] was found to be 8.4 nM; in the data set on Plasmodium falciparum [7] it was 12 nM.
In the case of `C[C@H]1[C@H](OC(=O)CCC(=O)O)O[C@@H]2O[C@@]3(C)CC[C@H]4[C@H](C)CC[C@@H]1[C@@]24OO3` [ARTESUNATE], the MSD in the data set on Plasmodium berghei [22] is 99 days; with Plasmodium berghei [23], 10 days. Also, the IC50 amounted to 3 nM with Plasmodium falciparum [6] and 4 nM in the data set on Plasmodium falciparum [7].
